According to the SangsterLogP compilation:

Test: method code SF-HPLC, from DOI: 10.1002/jps.2600750109, PMID: 3958903
Conditions: pH 7.4

Row | logD | SMILES
1 | 2.69 | CC[C@H](C(=O)OCc1ccc(Cl)cc1)[C@H](CO)Cc1cncn1C
2 | 1.97 | CCC(C(=O)OCc1ccccc1)C(CO)Cc1cncn1C (stereo unspecified)
3 | 2.42 | CC[C@H](C(=O)OCc1ccccc1C)[C@H](CO)Cc1cncn1C
4 | 2.31 | CCC(C(=O)OCCc1ccccc1)C(CO)Cc1cncn1C (stereo unspecified)
5 | 2.46 | CC[C@H](C(=O)OCc1ccc(C)cc1)[C@H](CO)Cc1cncn1C
6 | 2.23 | CCC(C(=O)OC(C)c1ccccc1)C(CO)Cc1cncn1C (stereo unspecified)

Further lines, the compound ahead of its results:

Row | SMILES | logD
7 | CCCCOC(=O)[C@@H](CC)[C@H](CO)Cc1cncn1C | 1.73
8 | O=C(NCN1CCOCC1)c1ccccc1O | 1.27
9 | CCOC(=O)CC(CO)C(CC)c1cncn1C (stereo unspecified) | 0.73
10 | CC(C)(C)C(=O)OCOc1ccccc1C(=O)NCN1CCOCC1 | 1.81
11 | CCCCCCOC(=O)C(CC)C(CO)Cc1cncn1C (stereo unspecified) | 2.71
